This assay deals with T1, BTK (Homo sapiens, UniProt Q06187).
T1 construct: The GM01501.3 cell line endogenously expresses BTK with a HiBiT fusion tag via CRISPR knock-in at its C-terminal region; endogenous in cells; host or cells: GM01501.3 (GM01501 cells engineered by CRISPR knock-in of HiBiT at the BTK locus)
As to the kind of experiment: BTK degradation assay using the HiBiT Method (Nano-Glo HiBiT Lytic Assay, GM01501.3 cells). The format is cell-based. To be noted: HiBiT Degradation on GM01501.3 BTK @ 6 hours. Put shortly:
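Degradation read-out: HiBiT luminescence after lytic reagent addition, giving DC50. Compounds dosed from 10 μM in 11 half-log steps (duplicate) onto GM01501.3 cells, whose endogenous BTK carries a C-terminal HiBiT knock-in tag; 6 h exposure, 37 °C, 5% CO2.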
Background: HiBiT is a short tag that completes a luciferase, so light tracks the accessible tagged protein.

T1 sequence (Q06187 whole entry, the tested form may be a part): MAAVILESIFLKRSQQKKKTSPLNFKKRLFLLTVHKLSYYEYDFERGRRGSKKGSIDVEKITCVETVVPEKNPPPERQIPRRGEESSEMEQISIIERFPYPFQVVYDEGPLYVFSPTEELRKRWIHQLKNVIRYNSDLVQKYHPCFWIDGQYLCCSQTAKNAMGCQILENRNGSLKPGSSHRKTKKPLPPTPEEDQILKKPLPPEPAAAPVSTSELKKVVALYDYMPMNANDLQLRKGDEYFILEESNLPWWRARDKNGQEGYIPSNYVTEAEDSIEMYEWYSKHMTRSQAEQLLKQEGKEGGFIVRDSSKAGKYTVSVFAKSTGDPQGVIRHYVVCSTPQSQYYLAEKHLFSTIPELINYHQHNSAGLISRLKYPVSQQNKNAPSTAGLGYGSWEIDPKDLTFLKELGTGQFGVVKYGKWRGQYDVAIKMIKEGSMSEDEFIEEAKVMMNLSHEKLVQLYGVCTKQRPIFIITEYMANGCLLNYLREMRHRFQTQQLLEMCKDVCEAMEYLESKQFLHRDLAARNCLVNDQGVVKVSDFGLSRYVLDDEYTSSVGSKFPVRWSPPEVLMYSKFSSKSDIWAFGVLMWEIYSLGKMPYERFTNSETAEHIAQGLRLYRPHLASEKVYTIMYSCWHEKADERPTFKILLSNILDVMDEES

`Cc1cc(-c2ncnn3cc(-c4ccc(CN5CCC(c6ccc(NC7CCC(=O)NC7=O)cc6)CC5)cc4)cc23)ccc1CNC(=O)c1cc2c(s1)CCCC2` (stereo not drawn) [Example 71, N— [[4-[6-[4-[[4-[4-[(2,6-dioxo-3-piperidyl)amino]phenyl]-1-piperidyl]methyl]phenyl]pyrrolo[2,1-f][1,2,4]triazin-4-yl]-2-methyl-phenyl]methyl]-4,5,6,7-tetrahydrobenzothiophene-2-carboxamide]: the half-maximal degradation concentration (DC50) (usually the concentration at which degradation of the target reaches its halfway point) was under 100 nM.

`Cc1cc(-c2ncnn3cc(OCCN4CCC(c5ccc(NC6CCC(=O)NC6=O)cc5)CC4)cc23)ccc1CNC(=O)c1noc(C(C)(C)C)n1` (stereo not drawn) [Example 288, 5-(tert-butyl)-N-(4-(6-(2-(4-(4-((2,6-dioxopiperidin-3-yl)amino)phenyl)piperidin-1-yl)ethoxy)pyrrolo[2,1-f][1,2,4]triazin-4-yl)-2-methylbenzyl)-1,2,4-oxadiazole-3-carboxamide] gave a DC50 of under 100 nM.

Regarding `CC(C)(C)c1nc(C(=O)NCc2ccc(-c3ncnn4cc(-c5ccc(CN6CCOc7cc(OC8CCC(=O)NC8=O)ccc7C6)cn5)cc34)cc2F)no1` (stereo not drawn) [Example 228], the DC50 fell in the range of 100 to 500 nM.

The molecule `Cc1cc(-c2ncnn3cc(CCN4CCC(c5ccc(NC6CCC(=O)NC6=O)cn5)CC4)cc23)ccc1CNC(=O)c1noc(C(C)(C)C)n1` (stereo not drawn) [Example 252, 5-(tert-butyl)-N-(4-(6-(2-(4-(5-((2,6-dioxopiperidin-3-yl)amino)pyridin-2-yl)piperidin-1-yl)ethyl)pyrrolo[2,1-f][1,2,4]triazin-4-yl)-2-methylbenzyl)-1,2,4-oxadiazole-3-carboxamide] yielded a DC50 of under 100 nM.

In turn, `Cc1cc(-c2ncnn3cc(-c4ccc(CN5CCC(c6ccc(NC7CCC(=O)NC7=O)cc6)CC5)cc4)cc23)ccc1CNC(=O)c1ccc(C(C)(F)F)cc1` (stereo not drawn) [Example 72, 4-(1,1-difluoroethyl)-N-[[4-[6-[4-[[4-[4-[(2,6-dioxo-3-piperidyl)amino]phenyl]-1-piperidyl]methyl]phenyl]pyrrolo[2,1-f][1,2,4]triazin-4-yl]-2-methyl-phenyl]methyl]benzamide] yielded a half-maximal degradation concentration (DC50) of under 100 nM.

`Cc1cc(-c2ncnn3cc(-c4ccc(CN5CCC(c6ccc(NC7CCC(=O)NC7=O)cc6)CC5)cc4)cc23)ccc1CNC(=O)c1cnc(C(C)C)cn1` (stereo not drawn) [Example 91, N-[[4-[6-[4-[[4-[4-[(2,6-dioxo-3-piperidyl)amino]phenyl]-1-piperidyl]methyl]phenyl]pyrrolo[2,1-f][1,2,4]triazin-4-yl]-2-methyl-phenyl]methyl]-5-isopropyl-pyrazine-2-carboxamide] returned a DC50 of under 100 nM.

With `Cc1cc(-c2ncnn3cc(-c4nc(CN5CCC(c6ccc(C7CCC(=O)NC7=O)cc6)CC5)co4)cc23)ccc1CNC(=O)c1noc(C(C)(C)C)n1` (stereo not drawn) [Example 219, 5-(tert-butyl)-N-(4-(6-(4-((4-(4-(2,6-dioxopiperidin-3-yl)phenyl)piperidin-1-yl)methyl)oxazol-2-yl)pyrrolo[2,1-f][1,2,4]triazin-4-yl)-2-methylbenzyl)-1,2,4-oxadiazole-3-carboxamide], the DC50 is under 100 nM.

`Cc1cc(-c2ncnn3cc(N4CCN(C(=O)c5ccc(CNC(=O)c6ccc(OC7CCC(=O)NC7=O)cc6)nc5)CC4)cc23)ccc1CNC(=O)c1noc(C(C)(C)C)n1` (stereo not drawn) [Example 179, 5-(tert-butyl)-N-(4-(6-(4-(6-((4-((2,6-dioxopiperidin-3-yl)oxy)benzamido)methyl)nicotinoyl)piperazin-1-yl)pyrrolo[2,1-f][1,2,4]triazin-4-y1)-2-methylbenzyl)-1,2,4-oxadiazole-3-carboxamide] came in with a DC50 of 100 to 500 nM.

Molecule `Cn1nc(N2CCC(=O)NC2=O)c2ccc(C3CCN(CCc4cc5c(-c6ccc(CNC(=O)c7noc(C(C)(C)C)n7)c(F)c6)ncnn5c4)CC3)cc21` [Example 124] came in with a 50% degradation concentration (DC50) of under 100 nM.

With `Cc1cc(-c2ncnn3cc(CCCCN4CCC(c5ccc6c(N7CCC(=O)NC7=O)nn(C)c6c5)CC4)cc23)ccc1CNC(=O)c1cc(C(C)(C)C)no1` [Example 280, 3-(tert-butyl)-N-(4-(6-(4-(4-(3-(2,4-dioxotetrahydropyrimidin-1(2H)-yl)-1-methyl-1H-indazol-6-yl)piperidin-1-yl)butyl)pyrrolo[2,1-f][1,2,4]triazin-4-yl)-2-methylbenzyl)isoxazole-5-carboxamide], the DC50 is under 100 nM.

`CC(C)(C)OC1CN(C(=O)NCc2ccc(-c3ncnn4cc(CCCCN5CCC(c6ccc(NC7CCC(=O)NC7=O)cn6)CC5)cc34)cc2F)C1` (stereo not drawn) [Example 135, 3-tert-butoxy-N-[[4-[6-[4-[4-[5-[(2,6-dioxo-3-piperidyl)amino]-2-pyridyl]-1-piperidyl]butyl]pyrrolo[2,1-f][1,2,4]triazin-4-yl]-2-fluoro-phenyl]methyl]azetidine-1-carboxamide] had a DC50 of under 100 nM.

Molecule `Cc1cc(-c2ncnn3cc(-c4ccc(CN5CCC(c6ccc(NC7CCC(=O)NC7=O)cc6)CC5)cc4)cc23)ccc1CNC(=O)c1ncc(C(C)C)cn1` (stereo not drawn) [Example 94, N-[[4-[6-[4-[[4-[4-[(2,6-dioxo-3-piperidyl)amino]phenyl]-1-piperidyl]methyl]phenyl]pyrrolo[2,1-f][1,2,4]triazin-4-yl]-2-methyl-phenyl]methyl]-5-isopropyl-pyrimidine-2-carboxamide] yielded a DC50 of under 100 nM.

As for `Cc1cc(-c2ncnn3cc(-c4ccc(CN5CCC(c6ccc(NC7CCC(=O)NC7=O)cn6)CC5)cc4)cc23)ccc1CNC(=O)c1noc(C(C)(C)C)n1` (stereo not drawn) [Example 20, 5-tert-butyl-N-[[4-[6-[4-[[4-[5-[(2,6-dioxo-3-piperidyl)amino]-2-pyridyl]-1-piperidyl]methyl]phenyl]pyrrolo[2,1-f][1,2,4]triazin-4-yl]-2-methyl-phenyl]methyl]-1,2,4-oxadiazole-3-carboxamide], the DC50 was under 100 nM.

`Cc1cc(-c2ccnc3cn(-c4ccc(CN5CCC(c6ccc(NC7CCC(=O)NC7=O)cc6)CC5)cc4)nc23)ccc1CNC(=O)c1noc(C(C)(C)C)n1` (stereo not drawn) [Example 223, 5-tert-butyl-N-[[4-[2-[4-[[4-[4-[(2,6-dioxo-3-piperidyl)amino]phenyl]-1-piperidyl]methyl]phenyl]pyrazolo[4,3-b]pyridin-7-yl]-2-methyl-phenyl]methyl]-1,2,4-oxadiazole-3-carboxamide] displayed a DC50 of under 100 nM.

Consider `CC(C)(C)c1nc(C(=O)NCc2ccc(-c3ncnn4cc(-c5ccc(CN6CC[C@@H](c7ccc(NC8CCC(=O)NC8=O)cc7)CC67CC7)cc5)cc34)cc2F)no1` (stereo partly drawn) [Example 38, 5-tert-butyl-N-[[4-[6-[4-[[(7R)-7-[4-[(2,6-dioxo-3-piperidyl)amino]phenyl]-4-azaspiro[2.5]octan-4-yl]methyl]phenyl]pyrrolo[2,1-f][1,2,4]triazin-4-yl]-2-fluoro-phenyl]methyl]-1,2,4-oxadiazole-3-carboxamide], for which the DC50 is under 100 nM.

`Cn1nc(N2CCC(=O)NC2=O)c2ccc(C3CCN(Cc4ccc(-c5cc6nccc(-c7ccc(CNC(=O)c8noc(C(C)(C)C)n8)c(F)c7)n6n5)cc4F)CC3)cc21` [Example 166, 5-tert-butyl-N-[[4-[2-[4-[[4-[3-(2,4-dioxohexahydropyrimidin-1-yl)-1-methyl-indazol-6-yl]-1-piperidyl]methyl]-3-fluoro-phenyl]pyrazolo[1,5-a]pyrimidin-7-yl]-2-fluoro-phenyl]methyl]-1,2,4-oxadiazole-3-carboxamide] had a DC50 of under 100 nM.

In the case of `Cc1cc(-c2ncnn3cc(N4CCN(C(=O)CCCCC5CCN(C(=O)c6ccc(OC7CCC(=O)NC7=O)cc6)CC5)CC4)cc23)ccc1CNC(=O)c1noc(C(C)(C)C)n1` (stereo not drawn) [Example 182, 5-(tert-butyl)-N-(4-(6-(4-(5-(1-(4-((2,6-dioxopiperidin-3-yl)oxy)benzoyl)piperidin-4-yl)pentanoyl)piperazin-1-yl)pyrrolo[2,1-f][1,2,4]triazin-4-yl)-2-methylbenzyl)-1,2,4-oxadiazole-3-carboxamide], the DC50 is under 100 nM.

In the case of `COc1cc(-c2ncnn3cc(-c4ccc(CN5CCC(c6ccc(NC7CCC(=O)NC7=O)cc6)CC5)cc4)cc23)ccc1CNC(=O)c1noc(C(C)(C)C)n1` (stereo not drawn) [Example 47, 5-tert-butyl-N-[[4-[6-[4-[[4-[4-[(2,6-dioxo-3-piperidyl)amino]phenyl]-1-piperidyl]methyl]phenyl]pyrrolo[2,1-f][1,2,4]triazin-4-yl]-2-methoxy-phenyl]methyl]-1,2,4-oxadiazole-3-carboxamide], the DC50 was under 100 nM.

`O=C1CCC(Nc2ccc(C3CCN(Cc4ccc(-c5cc6c(-c7ccc(CNC(=O)c8ccc(C(F)F)cc8)c(F)c7)ncnn6c5)cc4)CC3)cc2)C(=O)N1` (stereo not drawn) [Example 101, 4-(difluoromethyl)-N-[[4-[6-[4-[[4-[4-[(2,6-dioxo-3-piperidyl)amino]phenyl]-1-piperidyl]methyl]phenyl]pyrrolo[2,1-f][1,2,4]triazin-4-yl]-2-fluoro-phenyl]methyl]benzamide] had a DC50 of under 100 nM.

In turn, `CCc1ccc(C(=O)NCc2ccc(-c3ncnn4cc(-c5ccc(CN6CCC(c7ccc(NC8CCC(=O)NC8=O)cc7)CC6)cc5)cc34)cc2C)cc1` (stereo not drawn) [Example 67, N-[[4-[6-[4-[[4-[4-[(2,6-dioxo-3-piperidyl)amino]phenyl]-1-piperidyl]methyl]phenyl]pyrrolo[2,1-f][1,2,4]triazin-4-yl]-2-methyl-phenyl]methyl]-4-ethyl-benzamide] gave a DC50 of under 100 nM.

Take `Cc1cc(-c2ncnn3cc(-c4ccc(CN5CCC(c6ccc(NC7CCC(=O)NC7=O)cc6)CC5)cc4)cc23)ccc1CNC(=O)c1ccc(C(C)C)nn1` (stereo not drawn) [Example 92, N-[[4-[6-[4-[[4-[4-[(2,6-dioxo-3-piperidyl)amino]phenyl]-1-piperidyl]methyl]phenyl]pyrrolo[2,1-f][1,2,4]triazin-4-yl]-2-methyl-phenyl]methyl]-6-isopropyl-pyridazine-3-carboxamide]: the DC50 was under 100 nM.

(Values after patent US20240287076A1, “COMPOUNDS FOR TARGETING DEGRADATION OF BRUTON'S TYROSINE KINASE” (BIOGEN MA INC., priority 2021, published 2024).)
